Read-outs that look alike come from different tables or passages of the source.
Experiments:
[1] = test system: pAKT (p-Akt 1/2/3 (Ser473)) in MCF-7 cells; assay: AlphaLISA Ultra pAKT assay; assay type: cell-based; settings: Homo sapiens, MCF7, 2 hours compound incubation
Procedure: Example 156: AlphaLISA Ultra pAKT Assay
(§1) Assay Protocol: • 1. MCF-7 cells in Corning 3701 plate and incubate for 20-24 hour. 16,000-20,000 cells will be seeded in 36 μL medium per well. • 2. Change the culture medium with fresh medium and incubate for another 2 hours. • 3. Add 12 μL (4×) compounds into the cell plate by HAMILTON. Final DMSO concentration is 0.5%. Incubate for 2 hours. • 4. Aspirate 38 j L by HAMILTON, 10 μL rest per well. • 5. Add 10 μL 2× lysis buffer using HAMILTON; total volume in wells is 20 μL. Allow cells to shake for 30 min. Cover plate by plastic foil and store plate at −80° C. up to analysis. • 6. Thaw cell lysate at RT and transfer 10 ul lysate to assay plate (Optiplate-384). • 7. Add 5 ul acceptor beads into assay plate and incubation for 2 hours • 8. Add 5 ul donor beads and incubation for 2 hours • 9. Count the plate by EnSpire Multimode Plate Reader

[2] = test system: pS6K1 (p-p70 S6 Kinase (Thr389)) in MCF-7 cells; assay: AlphaLISA Ultra pS6K1 assay; assay type: cell-based; settings: 2 hours compound incubation
Procedure: Example 155: AlphaLISA Ultra pS6K1 assay
as §1, with “1. Seed” for “1.”, “20˜24” for “20-24”, “12,000˜16,000” for “16,000-20,000”, “μL” for “j L”

Question: How did the IC50 [1] turn out when `Cc1cc(C)c(C(=O)N2CCN(c3ccccc3S(N)(=O)=O)CC2)cc1NC1CCN(c2ccccc2C#N)C1` (centres unmarked) [I-131, 2-(4-(5-(1-(2-cyanophenyl)pyrrolidin-3-ylamino)-2,4-dimethylbenzoyl)piperazin-1-yl)benzenesulfonamide] was run?
Answer: > 10000 nM

Question: What about the IC50 ([2]; Homo sapiens, MCF7, 2 h) of the same molecule?
Answer: > 10000 nM

Question: Which IC50 [1] does the source give for `Cc1nc(C)c(C(=O)N2CCN(c3ccccc3)[C@H](CO)C2)c(C)c1NC1CCN(c2ccccn2)CC1` [I-155, [(2S)-1-phenyl-4-(2,4,6-trimethyl-5-{[1-(pyridin-2-yl)piperidin-4-yl]amino}pyridine-3-carbonyl)piperazin-2-yl]MeOH] here?
Answer: > 10000 nM

Question: And the IC50 ([2]; Homo sapiens, MCF7, 2 h)?
Answer: 1000 to 3000 nM

Question: For `Cc1cc(C)c(C(=O)N2CCN(c3ccccn3)[C@H](CO)C2)c(C)c1NC1CCN(c2ccc(F)cn2)CC1` [I-147, [(2S)-4-(3-{[1-(5-Fluoropyridin-2-yl)piperidin-4-yl]amino}-2,4,6-trimethylbenzoyl)-1-(pyridin-2-yl)piperazin-2-yl]methanol], which IC50 [1] is on record?
Answer: > 10000 nM

Question: And the IC50 ([2]; Homo sapiens, MCF7, 2 h)?
Answer: 10 to 1000 nM

Question: What does the source list for `Cc1cc(C)c(C(=O)N2CCN(c3ccccn3)[C@H](CO)C2)cc1NC1CCN(c2ccccc2OC(F)F)CC1` [I-184, (S)-(5-(1-(2-(difluoromethoxy)phenyl)piperidin-4-ylamino)-2,4-dimethylphenyl)(3-(hydroxymethyl)-4-(pyridin-2-yl)piperazin-1-yl)methanone]?
Answer: IC50 [1]: > 10000 nM; IC50 ([2]; Homo sapiens, MCF7, 2 h): 10 to 1000 nM

Question: How did the IC50 [1] turn out when `Cc1cc(C)c(C(=O)N2CCN(c3ncccc3[S@](C)(=N)=O)CC2)cc1NC1CCN(c2ccccc2C#N)CC1` (single isomer, unassigned) [I-93] was run?
Answer: > 10000 nM

Question: What about the IC50 ([2]; Homo sapiens, MCF7, 2 h) of the same molecule?
Answer: 1000 to 3000 nM

Question: Which IC50 [1] does the source give for `Cc1cc(C)c(C(=O)N2CCN(c3ccc(F)cc3)C(C(N)=O)C2)c(C)c1NC1CCN(c2cccnn2)CC1` (centres unmarked) [I-162, 1-(4-fluorophenyl)-4-(2,4,6-trimethyl-3-{[1-(pyridazin-3-yl)piperidin-4-yl]amino}benzoyl) piperazine-2-carboxamide] here?
Answer: > 10000 nM

Question: And the IC50 ([2]; Homo sapiens, MCF7, 2 h)?
Answer: 10 to 1000 nM

Question: For `Cc1cc(C)c(C(=O)N2CCN(c3ccccn3)[C@@H](C)C2)cc1NC1CCN(c2ccccc2C#N)CC1` [I-34, 2-[4-[2,4-Dimethyl-5-[(3S)-3-methyl-4-(2-pyridyl)piperazine-1-carbonyl]anilino]-1-piperidyl]benzonitrile], which IC50 [1] is on record?
Answer: > 10000 nM

Question: And the IC50 ([2]; Homo sapiens, MCF7, 2 h)?
Answer: 1000 to 3000 nM

Question: `Cc1cc(C)c(C(=O)N2CCN(c3ccccc3)C(C)(C)C2)cc1NC1CCN(c2ccccc2C#N)CC1` [I-119, 2-(4-(5-(3,3-Dimethyl-4-phenylpiperazine-1-carbonyl)-2,4-dimethylphenylamino)piperidin-1-yl)benzonitrile] was tested. Which IC50 [1] did it give?
Answer: > 10000 nM

Question: What about the IC50 ([2]; Homo sapiens, MCF7, 2 h) of the same molecule?
Answer: > 10000 nM

Question: Which IC50 [1] does the source give for `CCN(c1cc(C(=O)N2CCN(c3ccccc3S(N)(=O)=O)CC2)c(C)cc1C)C1CCN(c2ccccc2C#N)CC1` [I-51, 2-(4-(5-((1-(2-Cyanophenyl)piperidin-4-yl)(ethyl)amino)-2,4-dimethylbenzoyl)piperazin-1-yl)benzenesulfonamide] here?
Answer: > 10000 nM

Question: What about the IC50 ([2]; Homo sapiens, MCF7, 2 h) of the same molecule?
Answer: 1000 to 3000 nM

Question: Which IC50 [1] does the source give for `Cc1cc(C)c(C(=O)N2CCN(C(=O)OC(C)(C)C)[C@H](CO)C2)cc1NC1CCN(c2ccccc2C#N)CC1` [I-9, (S)-tert-butyl 4-(5-(1-(2-cyanophenyl)piperidin-4-ylamino)-2,4-dimethylbenzoyl)-2-(hydroxymethyl)piperazine-1-carboxylate] here?
Answer: > 10000 nM

Question: What about the IC50 ([2]; Homo sapiens, MCF7, 2 h) of the same molecule?
Answer: 1000 to 3000 nM

Question: Which IC50 [1] does the source give for `Cc1cc(C)c(C(=O)N2CCN(c3ccccc3)[C@@H](C(N)=O)C2)c(C)c1NC1CCN(c2cnccn2)CC1` [I-152, (2R)-1-phenyl-4-(2,4,6-trimethyl-3-{[1-(pyrazin-2-yl)piperidin-4-yl]amino}benzoyl) piperazine-2-carboxamide] here?
Answer: > 10000 nM

Question: What about the IC50 ([2]; Homo sapiens, MCF7, 2 h) of the same molecule?
Answer: > 10000 nM

Question: Which results are given for `Cc1cc(C)c(C(=O)N2CCN(c3cccc(F)c3S(N)(=O)=O)CC2)cc1NC1CCN(c2c(F)cccc2C#N)CC1` [I-92, 2-(4-(5-(1-(2-Cyano-6-fluorophenyl)piperidin-4-ylamino)-2,4-dimethylbenzoyl)piperazin-1-yl)-6-fluorobenzenesulfonamide]?
Answer: IC50 [1]: > 10000 nM; IC50 ([2]; Homo sapiens, MCF7, 2 h): 1000 to 3000 nM

Question: Which results are given for `Cc1cc(C)c(C(=O)N2CCN(c3ccccc3S(C)(=N)=O)CC2)cc1NC1CCN(c2ccccc2C#N)CC1` (centres unmarked) [I-62, 2-(4-{[5-(4-{2-[imino(methyl)oxo-λ^6-sulfanyl]phenyl}piperazine-1-carbonyl)-2,4-dimethylphenyl]amino}piperidin-1-yl)benzonitrile]?
Answer: IC50 [1]: > 10000 nM; IC50 ([2]; Homo sapiens, MCF7, 2 h): 10 to 1000 nM

Question: `Cc1cc(C)c(C(=O)N2CCN(CC(F)(F)F)[C@H](CO)C2)cc1NC1CCN(c2ccccc2C#N)CC1` [I-98, (S)-2-(4-(5-(3-(Hydroxymethyl)-4-(2,2,2-trifluoroethyl)piperazine-1-carbonyl)-2,4-dimethylphenylamino)piperidin-1-yl)benzonitrile] was tested. Which IC50 [1] did it give?
Answer: > 10000 nM

Question: And the IC50 ([2]; Homo sapiens, MCF7, 2 h)?
Answer: 5000 to 10000 nM

Question: `Cc1ccc(C(=O)N2CCN(c3ccccc3S(N)(=O)=O)CC2)c(C)c1NC1CCN(c2ccccc2C#N)CC1` [I-124, 2-[4-[3-[[1-(2-cyanophenyl)-4-piperidyl]amino]-2,4-dimethyl-benzoyl]piperazin-1-yl]benzenesulfonamide] was tested. Which IC50 [1] did it give?
Answer: > 10000 nM

Question: What about the IC50 ([2]; Homo sapiens, MCF7, 2 h) of the same molecule?
Answer: 10 to 1000 nM

Question: Which results are given for `Cc1cc(C)c(C(=O)N2CCN(C(C)C)[C@@H](CO)C2)cc1NC1CCN(c2ccccc2C#N)CC1` [I-114, (R)-2-(4-(5-(3-(Hydroxymethyl)-4-isopropylpiperazine-1-carbonyl)-2,4-dimethylphenylamino)piperidin-1-yl)benzonitrile]?
Answer: IC50 [1]: > 10000 nM; IC50 ([2]; Homo sapiens, MCF7, 2 h): > 10000 nM

Question: What does the source list for `Cc1cc(F)c(NC2CCN(c3ccccc3C#N)CC2)cc1C(=O)N1CCN(c2ccccc2S(N)(=O)=O)CC1` [I-90, 2-(4-(5-(1-(2-cyanophenyl)piperidin-4-ylamino)-4-fluoro-2-methylbenzoyl)piperazin-1-y)benzenesulfonamide]?
Answer: IC50 [1]: > 10000 nM; IC50 ([2]; Homo sapiens, MCF7, 2 h): 3000 to 5000 nM

Question: For `Cc1cc(C)c(C(=O)N2CCN(c3cccc(F)c3[S@@](C)(=N)=O)C[C@@H]2C)c(C)c1NC1CCN(c2ccccc2C#N)CC1` [I-189, 2-(4-(3-((S)-4-(3-fluoro-2-((S)-S-methylsulfonimidoyl)phenyl)-2-methylpiperazine-1-carbonyl)-2,4,6-trimethylphenylamino)piperidin-1-yl)benzonitrile], which IC50 [1] is on record?
Answer: > 10000 nM

Question: What about the IC50 ([2]; Homo sapiens, MCF7, 2 h) of the same molecule?
Answer: 10 to 1000 nM

Question: What does the source list for `Cc1cc(F)c(C(=O)N2CCN(c3ccccc3S(N)(=O)=O)CC2)cc1NC1CCN(c2ccccc2C#N)CC1` [I-113, 2-(4-(5-(1-(2-Cyanophenyl)piperidin-4-ylamino)-2-fluoro-4-methylbenzoyl)piperazin-1-yl)benzenesulfonamide]?
Answer: IC50 [1]: > 10000 nM; IC50 ([2]; Homo sapiens, MCF7, 2 h): 3000 to 5000 nM

Question: How did the IC50 [1] turn out when `Cc1cc(C)c(C(=O)N2CCN(c3ccc(F)cn3)[C@H](CO)C2)cc1NC1CCN(c2ccccc2C#N)CC1` [I-117, (S)-2-(4-(5-(4-(5-fluoropyridin-2-yl)-3-(hydroxymethyl)piperazine-1-carbonyl)-2,4-dimethylphenylamino)piperidin-1-yl)benzonitrile] was run?
Answer: > 10000 nM

Question: And the IC50 ([2]; Homo sapiens, MCF7, 2 h)?
Answer: 10 to 1000 nM

Question: With `Cc1cc(C)c(C(=O)N2CCN(c3cccnn3)[C@H](CO)C2)c(C)c1NC1CCN(c2cccnn2)CC1` [I-160, [(2S)-1-(pyridazin-3-yl)-4-(2,4,6-trimethyl-3-{[1-(pyridazin-3-yl)piperidin-4-yl]amino}benzoyl)piperazin-2-yl]MeOH] as the molecule, how does the IC50 [1] read?
Answer: > 10000 nM

Question: And the IC50 ([2]; Homo sapiens, MCF7, 2 h)?
Answer: 1000 to 3000 nM

Question: Which IC50 [1] does the source give for `Cc1cc(C)c(C(=O)N2CCN(c3ccc(F)cn3)[C@H](CO)C2)c(C)c1NC1CCN(c2cccnn2)CC1` [I-161, [(2S)-1-(5-fluoropyridin-2-yl)-4-(2,4,6-trimethyl-3-{[1-(pyridazin-3-yl)piperidin-4-yl]amino}benzoyl)piperazin-2-yl]MeOH] here?
Answer: > 10000 nM

Question: What about the IC50 ([2]; Homo sapiens, MCF7, 2 h) of the same molecule?
Answer: 10 to 1000 nM

Question: Which IC50 [1] does the source give for `CCCN(c1cc(C(=O)N2CCN(c3ccccc3S(N)(=O)=O)CC2)c(C)cc1C)C1CCN(c2ccccc2C#N)CC1` [I-23, 2-(4-(5-((1-(2-Cyanophenyl)piperidin-4-yl)(propyl)amino)-2,4-dimethylbenzoyl)piperazin-1-yl)benzenesulfonamide] here?
Answer: > 10000 nM

Question: And the IC50 ([2]; Homo sapiens, MCF7, 2 h)?
Answer: 1000 to 3000 nM

Question: For `Cc1ccc(C(=O)N2CCN(c3ccccc3)C(CO)C2)cc1NC1CCN(c2ccccc2C#N)CC1` (single isomer, unassigned) [I-84, 2-[4-({5-[(3R or S)-3-(hydroxymethyl)-4-phenylpiperazine-1-carbonyl]-2-methylphenyl}amino)piperidin-1-yl]benzonitrile], which IC50 [1] is on record?
Answer: > 10000 nM

Question: What about the IC50 ([2]; read-out: pS6K1 in MCF7: IC50) of the same molecule?
Answer: 1000 to 3000 nM

Question: `Cc1cc(C)c(C(=O)N2CCN(c3ccc(F)cc3)C(C(N)=O)C2)c(C)c1NC1CCN(c2ccc(F)cc2C#N)CC1` (centres unmarked) [I-144, 4-(3-{[1-(2-cyano-4-fluorophenyl)piperidin-4-yl]amino}-2,4,6-trimethyl-benzoyl)-1-(4-fluorophenyl) piperazine-2-carboxamide] was tested. Which IC50 [1] did it give?
Answer: > 10000 nM

Question: And the IC50 ([2]; Homo sapiens, MCF7, 2 h)?
Answer: 10 to 1000 nM

From patent US10844013B2, “Phenyl amino piperidine mTORC inhibitors and uses thereof” (Navitor Pharmaceuticals, Inc., priority 2016, dated 2020)
